Patent US10519211B2, “Compounds as peptidic GLP1/glucagon/GIP receptor agonists” (SANOFI, priority 2016, dated 2019)
Numbered stars: 1 amine (or outer) side, 2 acyl side, 3 side chain; on linkers, the order of the positions; unused ones are H or OH. Square brackets hold non-standard residues; d marks the D form. Side chains are listed from the residue outwards. Peptide text beside a SMILES is read from it. * marks the point of attachment. Adipoyl(4R-palmitoylamino) = CCCCCCCCCCCCCCCC(=O)N[C@H](CCC(=O)*)CC(=O)O; γGlu = O=C(O)[C@H](CCC(=O)[*:2])N[*:1]; Stearoyl = CCCCCCCCCCCCCCCCCC(=O)*; AEEA = NCCOCCOCC(=O)O; Aib = CC(C)(N)C(=O)O

Legend:
[1] = Dynamic light scattering (DLS), hydrodynamic radius as surrogate for interaction parameter kD; assay type: physicochemical; settings: for Delta Rh [nm] = Rh5 − Rh1: DLS buffer system A pH 4.5; for Rh1 [nm] c= 1 mg/ml / Rh5 [nm] c = 5 mg/ml: hydrodynamic radius, DLS buffer system A pH 4.5, DLS method C, 25° C.
Protocol: For every peptide solution, the hydrodynamic radius Rh and the diffusion constant D (related via the Stokes-Einstein equation) were determined as an average over triplicates. Both parameters were determined at different concentrations (e.g., Rh1 and D1: 1 mg/ml and Rh5 and D5: 5 mg/ml) in the same buffer system. The difference of these parameters between low and high peptide concentration is a surrogate for the DLS interaction parameter kD. Rh5<Rh1 or D5>D1 correspond to kD>0 and therefore to repulsive inter-particle interactions that result in improved physical (or colloidal) stability.
DLS buffer system A) 25 mM acetate buffer pH4.5, 3 mg/mL L-Methionine, 2.7 mg/mL m-cresol, 18 mg/mL Glycerol 85%
DLS Method C: DLS measurements were performed on a DynaPro Plate Reader II (Wyatt Technology, Santa Barbara, Calif., US) and using one of the following black, low volume, and non-treated plates: polystyrene 384 assay plate with clear bottom (Corning, N.Y., US), polystyrene 96 assay plate with clear bottom (Corning, N.Y., US), cyclo olefin polymer (COP) 384 assay plate with clear bottom (Aurora, Mont., US), or polystyrene 384 assay plate with clear bottom (Greiner Bio-One, Germany). The data were processed with the Dynamics software provided by Wyatt Technology. Parameters of the particle size distribution were determined with non-negatively constrained least squares (NNLS) methods using DynaLS algorithms. Measurements were taken at 25° C. with an 830 nm laser light source at an angle of 158°.
The hydrodynamic radius radius Rh of peptide samples was determined at different peptide concentrations (1 mg/ml and 5 mg/ml) in DLS buffer system A using DLS method C as described in Methods as surrogate for the DLS interaction parameter kD.

[2] = target: T1, human GLP-1 receptor (hGLP-1 R) (Homo sapiens, UniProt P43220); assay: cAMP response (HTRF) of HEK-293 cells stably expressing human GLP-1 receptor; assay type: cell-based; settings: Table 8; cAMP formation
T1 construct: expressed in transfected cells; host or cells: HEK-293
T1 sequence (P43220 24-463): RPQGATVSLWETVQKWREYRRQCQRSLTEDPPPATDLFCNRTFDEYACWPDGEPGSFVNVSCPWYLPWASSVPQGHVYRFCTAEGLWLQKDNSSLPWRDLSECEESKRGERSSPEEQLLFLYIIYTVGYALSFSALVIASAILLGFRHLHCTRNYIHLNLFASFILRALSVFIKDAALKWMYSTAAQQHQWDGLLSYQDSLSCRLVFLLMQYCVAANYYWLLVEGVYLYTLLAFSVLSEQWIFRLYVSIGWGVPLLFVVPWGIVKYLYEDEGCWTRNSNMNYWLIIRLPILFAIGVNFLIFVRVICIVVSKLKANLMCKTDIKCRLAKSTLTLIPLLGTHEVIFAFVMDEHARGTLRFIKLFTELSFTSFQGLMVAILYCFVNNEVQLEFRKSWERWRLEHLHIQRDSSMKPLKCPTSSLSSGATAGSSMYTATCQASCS
Protocol: cAMP content of cells was determined using a kit from Cisbio Corp. (cat. no. 62AM4PEJ) based on HTRF (Homogenous Time Resolved Fluorescence). For preparation, cells were split into T175 culture flasks and grown overnight to near confluency in medium (DMEM/10% FBS). Medium was then removed and cells washed with PBS lacking calcium and magnesium, followed by proteinase treatment with accutase (Sigma-Aldrich cat. no. A6964). Detached cells were washed and resuspended in assay buffer (1×HBSS; 20 mM HEPES, 0.1% BSA, 2 mM IBMX) and cellular density determined. They were then diluted to 400000 cells/ml and 25 μl-aliquots dispensed into the wells of 96-well plates. For measurement, 25 μl of test compound in assay buffer was added to the wells, followed by incubation for 30 minutes at room temperature.
Potencies of peptidic compounds at the GLP-1, glucagon and GIP receptors were determined by exposing cells expressing human glucagon receptor (hGlucagon R), human GIP receptor (hGIP-R) or human GLP-1 receptor (hGLP-1 R) to the listed compounds at increasing concentrations and measuring the formed cAMP as described in Methods.

[3] = Solubility assessment (UPLC-UV); assay type: physicochemical; settings: acetate buffer pH 4.5, 2.7 mg/ml m-cresol (buffer system A), target 10 mg/ml
Protocol: Prior to the solubility measurement of a peptide batch, its purity was determined through UPLC/MS.
Therefore solutions from solid samples were prepared in a buffer systems with a concentration of 10 mg/mL compound based on the previously determined % purity:
Solubility buffer system A) Acetate Buffer pH 4.5, 100 mM sodium acetate trihydrate, 2.7 mg/ml m-Cresol
UPLC-UV was performed after 1 hour of gentle agitation from the supernatant, which was obtained after 15 min of centrifugation at 2500 RCF (relative centrifugal acceleration).
The solubility was determined by the comparison of the UV peak area of 2 μL-injection of a buffered sample diluted 1:10 with a standard curve of a reference peptide with known concentration. The different UV extinction coefficients of sample and reference peptide were calculated based on the different amino acid sequences and considered in the concentration calculation.
Peptide samples were prepared in solubility buffer system A and solubility was assessed as described in Methods.

[4] = Chemical stability assessment (UPLC-UV, relative purity loss); assay type: physicochemical; settings: 1 mg/ml, 25 mM acetate buffer pH 4.5 with m-cresol (buffer system A)
Protocol: Prior to the chemical stability measurement of a peptide batch, its purity was determined through UPLC/MS. For stability testing the target concentration was 1 mg pure compound/ml. Therefore solutions from solid samples were prepared in a buffer system with a concentration of 1 mg/mL compound based on the previously determined % purity:
Chemical stability buffer system A) 25 mM acetate buffer pH4.5, 3 mg/mL L-Methionine, 2.7 mg/mL m-cresol, 18 mg/mL Glycerol 85%
Peptide solutions were filtered through […] pore size and filled into aliquots under aseptic conditions. At starting point UPLC-UV was performed by injection of 2 μl of the undiluted sample.
For chemical stability testing, aliquots were stored for 28 days at Sand 40° C. After this time course the samples were centrifuged for 15 min at 2500 RCF. Then 2 μl of the undiluted supernatant were analysed with UPLC-UV.
The chemical stability was rated through the relative loss of purity calculated by the equation: [(purity at starting point)−(purity after 28 days at X° C.)]/(purity at starting point)]*100%
The purity is calculated as [(peak area peptide)/(total peak area)]*100%
Peptide samples were prepared in Chemical stability buffer system A and chemical stability was assessed as described in Methods.

[5] = Thioflavin T (ThT) assay for physical stability (fibrillation); assay type: physicochemical; settings: 3 mg/ml, 100 mM acetate pH 4.5 with m-cresol, shaking at 37° C.
Summary of the method: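 Peptide at 3 mg/ml with 100 μM ThT in 100 mM acetate pH 4.5 with m-cresol, stressed at 37° C by cycles of 10 s shaking at 960 rpm and 50 s rest. Fluorescence read every 20 minutes, eight replicates; lag time in hours.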

SMILES | Delta Rh [nm] = Rh5 − Rh1 [1] | Rh1 [nm] c= 1 mg/ml [1] | Rh5 [nm] c = 5 mg/ml [1] | EC50 [2] | solubility at 1 h [3] | Chemical stability [relative purity loss 28 days 40° C.] (%) at pH 4.5 [4] | Lag time before increase [5]
CCCCCCCCCCCCCCCC(=O)N[C@@H](CCC(=O)NCCCC[C@H](NC(=O)[C@H](CC(C)C)NC(=O)[C@H](CCCCN)NC(=O)[C@H](CO)NC(=O)[C@H](CC(C)C)NC(=O)[C@H](CC(=O)O)NC(=O)[C@H](CO)NC(=O)[C@@H](NC(=O)[C@H](Cc1ccccc1)NC(=O)[C@@H](NC(=O)CNC(=O)[C@H](CCC(N)=O)NC(=O)C(C)(C)NC(=O)[C@@H](N)Cc1c[nH]cn1)[C@@H](C)O)[C@@H](C)O)C(=O)N[C@@H](CCC(=O)O)C(=O)N[C@@H](CCCCN)C(=O)N[C@@H](CCC(N)=O)C(=O)N[C@@H](CCCNC(=N)N)C(=O)N[C@@H](CCC(N)=O)C(=O)NC(C)(C)C(=O)N[C@@H](CCC(=O)O)C(=O)N[C@@H](Cc1ccccc1)C(=O)N[C@H](C(=O)N[C@@H](CCC(=O)O)C(=O)N[C@@H](Cc1c[nH]c2ccccc12)C(=O)N[C@@H](CC(C)C)C(=O)N[C@@H](CCCCN)C(=O)N[C@@H](C)C(=O)NCC(=O)NCC(=O)N1CCC[C@H]1C(=O)N1CCC[C@H]1C(=O)N[C@@H](CO)C(=O)NC(C)(C)C(=O)N[C@@H](CCCCN)C(=O)N1CCC[C@H]1C(=O)N1CCC[C@H]1C(=O)N1CCC[C@H]1C(=O)N[C@@H](CCCCN)C(N)=O)[C@@H](C)CC)C(=O)O [SEQ ID NO: 14, H-Aib-Q-G-T-F-T-S-D-L-S-K-L-K[gGlu-Palm]-E-K-Q-R-Q-Aib-E-F-I-E-W-L-K-A-G-G-P-P-S-Aib-K-P-P-P-K-NH2] | −0.2 nm | 2.7 nm | 2.4 nm | 5.7 pM | > 9300 µg/mL | 5.5% | 
CCCCCCCCCCCCCCCCCC(=O)N[C@@H](CCC(=O)NCCCC[C@H](NC(=O)[C@H](CC(C)C)NC(=O)[C@H](CCCCN)NC(=O)[C@H](CO)NC(=O)[C@H](CC(C)C)NC(=O)[C@H](CC(=O)O)NC(=O)[C@H](CO)NC(=O)[C@@H](NC(=O)[C@H](Cc1ccccc1)NC(=O)[C@@H](NC(=O)CNC(=O)[C@H](CCC(N)=O)NC(=O)C(C)(C)NC(=O)[C@@H](N)Cc1c[nH]cn1)[C@@H](C)O)[C@@H](C)O)C(=O)N[C@@H](CCC(=O)O)C(=O)N[C@@H](CCCCN)C(=O)N[C@@H](CCC(N)=O)C(=O)N[C@@H](CCCNC(=N)N)C(=O)N[C@@H](CCC(N)=O)C(=O)NC(C)(C)C(=O)N[C@@H](CCC(=O)O)C(=O)N[C@@H](Cc1ccccc1)C(=O)N[C@H](C(=O)N[C@@H](CCC(=O)O)C(=O)N[C@@H](Cc1c[nH]c2ccccc12)C(=O)N[C@@H](CC(C)C)C(=O)N[C@@H](CCCCN)C(=O)N[C@@H](C)C(=O)NCC(=O)NCC(=O)N1CCC[C@H]1C(=O)N1CCC[C@H]1C(=O)N[C@@H](CO)C(=O)NC(C)(C)C(=O)N[C@@H](CCCCN)C(=O)N1CCC[C@H]1C(=O)N1CCC[C@H]1C(=O)N1CCC[C@H]1C(=O)N[C@@H](CCCCN)C(N)=O)[C@@H](C)CC)C(=O)O [SEQ ID NO: 15, H-Aib-Q-G-T-F-T-S-D-L-S-K-L-K[gGlu-Stea]-E-K-Q-R-Q-Aib-E-F-I-E-W-L-K-A-G-G-P-P-S-Aib-K-P-P-P-K-NH2] (H-H[Aib]QGTFTSDLSKLK([γGlu-Stearoyl])EKQRQ[Aib]EFIEWLKAGGPPS[Aib]KPPPK-NH2) | −0.2 nm | 2.7 nm | 2.6 nm | 5.7 pM | > 8900 µg/mL | 5.6% | 
CCCCCCCCCCCCCCCC(=O)N[C@H](CCC(=O)NCCOCCOCC(=O)N[C@@H](CCC(=O)NCCCC[C@H](NC(=O)[C@H](CC(C)C)NC(=O)[C@H](CCCCN)NC(=O)[C@H](CO)NC(=O)[C@H](CC(C)C)NC(=O)[C@H](CC(=O)O)NC(=O)[C@H](CO)NC(=O)[C@@H](NC(=O)[C@H](Cc1ccccc1)NC(=O)[C@@H](NC(=O)CNC(=O)[C@H](CCC(N)=O)NC(=O)C(C)(C)NC(=O)[C@@H](N)Cc1c[nH]cn1)[C@@H](C)O)[C@@H](C)O)C(=O)N[C@@H](CCC(=O)O)C(=O)N[C@@H](CCCCN)C(=O)N[C@@H](CCC(N)=O)C(=O)N[C@@H](CCCNC(=N)N)C(=O)N[C@@H](CCC(N)=O)C(=O)NC(C)(C)C(=O)N[C@@H](CCC(=O)O)C(=O)N[C@@H](Cc1ccccc1)C(=O)N[C@H](C(=O)N[C@@H](CCC(=O)O)C(=O)N[C@@H](Cc1c[nH]c2ccccc12)C(=O)N[C@@H](CC(C)C)C(=O)N[C@@H](CCCCN)C(=O)N[C@@H](C)C(=O)NCC(=O)NCC(=O)N[C@@H](Cc1c[nH]cn1)C(=O)N1CCC[C@H]1C(=O)N[C@@H](CO)C(=O)NC(C)(C)C(=O)N[C@@H](CCCCN)C(=O)N1CCC[C@H]1C(=O)N1CCC[C@H]1C(=O)N1CCC[C@H]1C(=O)N[C@@H](CCCCN)C(N)=O)[C@@H](C)CC)C(=O)O)CC(=O)O [SEQ ID NO: 20, H-Aib-Q-G-T-F-T-S-D-L-S-K-L-K[gGlu-AEEA-gAAA-Palm]-E-K-Q-R-Q-Aib-E-F-I-E-W-L-K-A-G-G-H-P-S-Aib-K-P-P-P-K-NH2] (H-H[Aib]QGTFTSDLSKLK([γGlu-AEEA-Adipoyl(4R-palmitoylamino)])EKQRQ[Aib]EFIEWLKAGGHPS[Aib]KPPPK-NH2) |  |  |  | 2.4 pM |  |  | >45 h
